According to US5886207A, “Optically active compound of flubrocythrinate, a process for preparing the same” (Shanghai Zhongxi Pharmaceutical Co. Ltd., priority 1994, dated 1999):

Experiments:
Type in all cases: in vivo
wheat aphid = test: Laboratory toxicity test against wheat aphid (Topic application method); settings: for times as toxic as compound I against wheat aphid: relative to compound I, from Table 2; for LD50: third instar larva, topical 0.083 μl in acetone, 27° C., 48 hours
Protocol: (§1) 2. Laboratory toxicity test against wheat aphid (1) Method of manipulation (Topic application method) Weigh third instar larva on a swift electronic balance to obtain 8-18 mg/larva, and 0.083 μl of the insecticide solution in acetone at specified concentration with a microsyringe to the dorsal thorax of the larva, and then transfer the larva into a finger-type tube charged with artificial fodder, each tube for one larva, each concentration for 30 tubes, each insecticide run at 5 concentrations, and repeat 3 times. Place the tubes in a thermostat oven at 27° C. for 48 hours, and inspect the number of dead larva. Standard for death judgement: judge the wholly inflexible test aphid as death.

[1] = test system: tetranychus telarius Linnaeus and wheat aphid; test: Overall comparison of efficacy and dosage with compound I from Tables 1 and 2; settings: Tables 1 and 2, in words
Excerpt: (§2) Take the robust mature female mites, and paste the back of the mite on a piece of glass with a transparent adhesive tape. Every piece of glass pasted with 40 mites, and three pieces of glasses for each concentration, each insecticide repeated three times at five concentration. […] Immerse the above glasses in a insecticidal solution of specified concentration for 5 seconds and take out from the solution. Use a piece of absorbent paper to absorb the surplus insecticidal solution, transfer the above treated glasses to a culture dish previously fitted with a wetted cotton wool. The culture dish is kept in a thermostat oven at 28° C. for 48 hours, and inspect the number of dead mites under binocular dissecteined microscope. Standard for death judgement: use a needle to move the body of the mite, wholly inflexible judged as death.
as §1, with “Weigh” for “2. Laboratory toxicity test against wheat aphid (1) Method of manipulation (Topic application method) Weigh”
The compound A and Ib are 2.11 times and 1.78 times as toxic as compound I against tetranychus telarius Linnaeus, and are 1.95 times and 1.88 times as toxic as compound I against wheat aphid respectively. Therefore compound Ia has the preferred effect, and the dosage needed is the lowest; the next one are A and compound Ib.

[2] = test system: tetranychus telarius Linnaeus; test: Laboratory toxicity test against tetranychus telarius Linnaeus (Pasting Method); settings: for LC50 / LC90: mature female mites, glass slide immersion 5 seconds, time 24 (hour); for times as toxic as compound I against tetranychus telarius Linnaeus: relative to compound I, from Table 1
Excerpt: 1. Laboratory toxicity test against tetranychus telarius Linnaeus
(1) Method of manipulation: (Pasting Method)
as §2, with “The culture dish is kept in a thermostat oven at 28° C. for 48 hours, and inspect the number of dead mites under binocular dissecteined microscope.” left out

CC(C)[C@H](C(=O)O[C@H](C#N)c1cccc(Oc2ccc(Br)cc2)c1)c1ccc(OC(F)F)cc1 (relative stereo) [A]
times as toxic as compound I against wheat aphid (wheat aphid): 1.95 times | LD50 (wheat aphid): 0.0003712 μg/larva | dosage compared with compound I [1]: lower than that of compound I | efficacy compared with compound I [1]: apparently better than compound I | LC50 [2]: 10 ppm | LC90 [2]: 110 ppm | times as toxic as compound I against tetranychus telarius Linnaeus [2]: 2.11 times

CC(C)[C@H](C(=O)O[C@H](C#N)c1cccc(Oc2ccc(Br)cc2)c1)c1ccc(OC(F)F)cc1 [Ia, (S)-α-Cyano-3-(4-bromophenoxy)benzyl-(S)-2-(4-difluoromethoxyphenyl)-3-methylbutyrate]
times as toxic as compound I against wheat aphid (wheat aphid): 4.06 times | LD50 (wheat aphid): 0.0001783 μg/larva | dosage compared with compound I [1]: lower than that of compound I | efficacy compared with compound I [1]: apparently better than compound I | LC50 [2]: 4 ppm | LC90 [2]: 52 ppm | times as toxic as compound I against tetranychus telarius Linnaeus [2]: 4.46 times

CC(C)[C@H](C(=O)O[C@@H](C#N)c1cccc(Oc2ccc(Br)cc2)c1)c1ccc(OC(F)F)cc1 [Ib, (R)-α-Cyano-3-(4-bromophenoxy)benzyl-(S)-2-(4-difluoromethoxyphenyl)-3-methylbutyrate]
times as toxic as compound I against wheat aphid (wheat aphid): 1.88 times | LD50 (wheat aphid): 0.000385 μg/larva | dosage compared with compound I [1]: lower than that of compound I | efficacy compared with compound I [1]: apparently better than compound I | LC50 [2]: 12 ppm | LC90 [2]: 130 ppm | times as toxic as compound I against tetranychus telarius Linnaeus [2]: 1.78 times

CC(C)[C@@H](C(=O)O[C@H](C#N)c1cccc(Oc2ccc(Br)cc2)c1)c1ccc(OC(F)F)cc1 [Ic]
LD50 (wheat aphid): 0.009252 μg/larva | LC50 [2]: 220 ppm | LC90 [2]: 2580 ppm

CC(C)[C@@H](C(=O)O[C@@H](C#N)c1cccc(Oc2ccc(Br)cc2)c1)c1ccc(OC(F)F)cc1 [Id, (R)-α-Cyano-3-(4-bromophenoxy)benzyl (R)-2-(4-difluoromethoxyphenyl)-3-methylbutyrate]
LD50 (wheat aphid): 0.05047 μg/larva | LC50 [2]: 1200 ppm | LC90 [2]: 8000 ppm

CC(C)C(C(=O)OC(C#N)c1cccc(Oc2ccc(Br)cc2)c1)c1ccc(OC(F)F)cc1 (stereo not drawn) [compound I, α-cyano-3-(4-bromophenoxy) benzyl-2-(4-difluoromethoxyphenyl)-3-methylbutyrate, reference compound]
LD50 (wheat aphid): 0.0007247 μg/larva | LC50 [2]: 19 ppm | LC90 [2]: 232 ppm
